Experimental data: PubChem BioAssay (NCI)
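At the GI50, growth is halved. TGI is the concentration that stops growth completely.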

How the values were obtained:
Assay in all cases: DTP human tumour cell line panel, 384-well format
786-0 renal = test system: 786-0 renal
A498 renal = test system: A498 renal
A549 NSCLC = test system: A549 NSCLC
ACHN renal = test system: ACHN renal
CAKI-1 renal = test system: CAKI-1 renal
CCRF-CEM leukemia = test system: CCRF-CEM leukemia
COLO 205 colon = test system: COLO 205 colon
DU-145 prostate = test system: DU-145 prostate
EKVX NSCLC = test system: EKVX NSCLC
HCC-2998 colon = test system: HCC-2998 colon
HCT-116 colon = test system: HCT-116 colon
HCT-15 colon = test system: HCT-15 colon
HL-60(TB) leukemia = test system: HL-60(TB) leukemia
HOP-62 NSCLC = test system: HOP-62 NSCLC
HOP-92 NSCLC = test system: HOP-92 NSCLC
HS 578T breast = test system: HS 578T breast
HT29 colon = test system: HT29 colon
IGROV1 ovarian = test system: IGROV1 ovarian
K-562 leukemia = test system: K-562 leukemia
KM12 colon = test system: KM12 colon
LOX IMVI melanoma = test system: LOX IMVI melanoma
M14 melanoma = test system: M14 melanoma
MCF7 breast = test system: MCF7 breast
MDA-MB-231 breast = test system: MDA-MB-231 breast
MDA-MB-435 melanoma = test system: MDA-MB-435 melanoma
MDA-MB-468 breast = test system: MDA-MB-468 breast
MOLT-4 leukemia = test system: MOLT-4 leukemia
NCI-H226 lung = test system: NCI-H226 lung
NCI-H23 lung = test system: NCI-H23 lung
NCI-H322M lung = test system: NCI-H322M lung
NCI-H460 NSCLC = test system: NCI-H460 NSCLC
NCI-H522 lung = test system: NCI-H522 lung
NCI/ADR-RES ovarian = test system: NCI/ADR-RES ovarian
OVCAR-3 ovarian = test system: OVCAR-3 ovarian
OVCAR-4 ovarian = test system: OVCAR-4 ovarian
OVCAR-5 ovarian = test system: OVCAR-5 ovarian
OVCAR-8 ovarian = test system: OVCAR-8 ovarian
PC-3 prostate = test system: PC-3 prostate
RPMI-8226 leukemia = test system: RPMI-8226 leukemia
SF-268 CNS = test system: SF-268 CNS
SF-295 CNS = test system: SF-295 CNS
SF-539 CNS = test system: SF-539 CNS
SK-MEL-28 melanoma = test system: SK-MEL-28 melanoma
SK-MEL-5 melanoma = test system: SK-MEL-5 melanoma
SK-OV-3 ovarian = test system: SK-OV-3 ovarian
SN12C renal = test system: SN12C renal
SNB-19 CNS = test system: SNB-19 CNS
SNB-75 CNS = test system: SNB-75 CNS
SW-620 colon = test system: SW-620 colon
T-47D breast = test system: T-47D breast
TK-10 renal = test system: TK-10 renal
U251 glioblastoma = test system: U251 glioblastoma
UACC-257 melanoma = test system: UACC-257 melanoma
UACC-62 melanoma = test system: UACC-62 melanoma
UO-31 renal = test system: UO-31 renal

Question: What does the source list for CC1(C)CC(=O)c2c(C(F)(F)F)nn(-c3ccc(C(N)=O)c(NC4CCC(OC(=O)CN)CC4)c3)c2C1 (stereo not given)?
Answer: GI50 ([…]-0 renal): 0.0439 µM; TGI (786-0 renal): 11.7 µM; GI50 (A498 renal): 0.0672 µM; TGI (A498 renal): 15.1 µM; GI50 (A549 NSCLC): 0.029 µM; TGI (A549 NSCLC): 11 µM; GI50 (ACHN renal): 0.062 µM; TGI (ACHN renal): 18.1 µM; GI50 (CAKI-1 renal): 0.0679 µM; TGI (CAKI-1 renal): 19.6 µM; GI50 (CCRF-CEM leukemia): 0.0189 µM; TGI (CCRF-CEM leukemia): 0.0533 µM; GI50 (COLO 205 colon): 0.0137 µM; TGI (COLO 205 colon): 0.0667 µM; GI50 (DU-145 prostate): 0.0482 µM; TGI (DU-145 prostate): 0.975 µM; GI50 (EKVX NSCLC): 0.0831 µM; TGI (EKVX NSCLC): 15.6 µM; GI50 (HCC-2998 colon): 0.0214 µM; TGI (HCC-2998 colon): 0.0874 µM; GI50 (HCT-116 colon): 0.0414 µM; TGI (HCT-116 colon): 13 µM; GI50 (HCT-15 colon): 0.0888 µM; TGI (HCT-15 colon): 14.2 µM; GI50 (HL-60(TB) leukemia): 0.0192 µM; TGI (HL-60(TB) leukemia): 0.0354 µM; GI50 (HOP-62 NSCLC): 0.041 µM; TGI (HOP-62 NSCLC): 20 µM; GI50 (HOP-92 NSCLC): 0.0282 µM; TGI (HOP-92 NSCLC): 0.0895 µM; GI50 (HS 578T breast): 0.0321 µM; TGI (HS 578T breast): 0.222 µM; GI50 (HT29 colon): 0.0246 µM; TGI (HT29 colon): 11.5 µM; GI50 (IGROV1 ovarian): 0.0189 µM; TGI (IGROV1 ovarian): 0.0743 µM; GI50 (K-562 leukemia): 0.0274 µM; TGI (K-562 leukemia): 10.2 µM; GI50 (KM12 colon): 0.0266 µM; TGI (KM12 colon): 0.827 µM; GI50 (LOX IMVI melanoma): 0.0174 µM; TGI (LOX IMVI melanoma): 0.0336 µM; GI50 (M14 melanoma): 0.0314 µM; TGI (M14 melanoma): 12 µM; GI50 (MCF7 breast): 0.0254 µM; TGI (MCF7 breast): 0.843 µM; GI50 (MDA-MB-231 breast): 0.0227 µM; TGI (MDA-MB-231 breast): 0.0717 µM; GI50 (MDA-MB-435 melanoma): 0.0674 µM; TGI (MDA-MB-435 melanoma): 38.1 µM; GI50 (MDA-MB-468 breast): 0.021 µM; TGI (MDA-MB-468 breast): 0.0476 µM; GI50 (MOLT-4 leukemia): 0.0119 µM; TGI (MOLT-4 leukemia): 0.0253 µM; GI50 (NCI-H226 lung): 0.0303 µM; TGI (NCI-H226 lung): 0.229 µM; GI50 (NCI-H23 lung): 0.0212 µM; TGI (NCI-H23 lung): 0.0683 µM; GI50 (NCI-H322M lung): 0.0442 µM; TGI (NCI-H322M lung): 20.8 µM; GI50 (NCI-H460 NSCLC): 0.0221 µM; TGI (NCI-H460 NSCLC): 0.0573 µM; GI50 (NCI-H522 lung): 0.0212 µM; TGI (NCI-H522 lung): 0.0493 µM; GI50 (NCI/ADR-RES ovarian): 2.35 µM; TGI (NCI/ADR-RES ovarian): 6.77 µM; GI50 (OVCAR-3 ovarian): 0.0253 µM; TGI (OVCAR-3 ovarian): 0.0885 µM; GI50 (OVCAR-4 ovarian): 17.1 µM; TGI (OVCAR-4 ovarian): > 100 µM; GI50 (OVCAR-5 ovarian): 0.0536 µM; TGI (OVCAR-5 ovarian): 30.2 µM; GI50 (OVCAR-8 ovarian): 0.0219 µM; TGI (OVCAR-8 ovarian): 0.0482 µM; GI50 (PC-3 prostate): 0.0336 µM; TGI (PC-3 prostate): 0.135 µM; GI50 (RPMI-8226 leukemia): 0.0512 µM; TGI (RPMI-8226 leukemia): 0.241 µM; GI50 (SF-268 CNS): 0.0122 µM; TGI (SF-268 CNS): 0.0365 µM; GI50 (SF-295 CNS): 0.0373 µM; TGI (SF-295 CNS): 0.14 µM; GI50 (SF-539 CNS): 0.0186 µM; TGI (SF-539 CNS): 0.0431 µM; GI50 (SK-MEL-28 melanoma): 0.0465 µM; TGI (SK-MEL-28 melanoma): 19.3 µM; GI50 (SK-MEL-5 melanoma): 0.0396 µM; TGI (SK-MEL-5 melanoma): 14 µM; GI50 (SK-OV-3 ovarian): 0.0415 µM; TGI (SK-OV-3 ovarian): 29.5 µM; GI50 (SN12C renal): 0.0296 µM; TGI (SN12C renal): 0.0988 µM; GI50 (SNB-19 CNS): 0.0475 µM; TGI (SNB-19 CNS): 30 µM; GI50 (SNB-75 CNS): 0.112 µM; TGI (SNB-75 CNS): 0.506 µM; GI50 (SW-620 colon): 0.0258 µM; TGI (SW-620 colon): 0.0794 µM; GI50 (T-47D breast): 0.0195 µM; TGI (T-47D breast): 0.065 µM; GI50 (TK-10 renal): 0.051 µM; TGI (TK-10 renal): 5.31 µM; GI50 (U251 glioblastoma): 0.0304 µM; TGI (U251 glioblastoma): 0.0952 µM; GI50 (UACC-257 melanoma): 0.0528 µM; TGI (UACC-257 melanoma): 21.2 µM; GI50 (UACC-62 melanoma): 0.0297 µM; TGI (UACC-62 melanoma): 0.129 µM; GI50 (UO-31 renal): 0.119 µM; TGI (UO-31 renal): 16.3 µM
